Laboratory results: US20130331266A1, “METHOD FOR CONTROLLING WEEDS IN PADDY RICE CULTIVATION” (SUMITOMO CHEMICAL COMPANY, LIMITED, priority 2011, published 2013)

Experiments:
Assay type in all cases: in vivo
Leptochloa chinenisis = assay: Pot test Example 5: herbicidal effect on Leptochloa chinenisis, spray at 0.5 cm water then flooding; settings: score 0-100, 100 g/ha, second or third leaf stage, evaluated 2 weeks after application
Experimental: (§1) In Examples of the method of the present invention, a criterion for evaluating a herbicidal effect is as follows.
A 1/10000-are Wagner pot was filled with a paddy field soil, and then water was added thereto followed by soil puddling. After draining, a pre-germinated Leptochloa chinenisis was sown, and then grown in a glasshouse. Sixteen (16) days after the sowing when Leptochloa chinenisis had the second or third leaves, each water-diluted solution containing 50 ppm of Compound 1, Compound 2, or Compound 3 was applied by spraying on the surface of the pot with a sprayer so that each amount of Compound 1, Compound 2, and Compound 3 as listed in Table 4 was applied. When applying the water-diluted solution, the pot was flooded to a depth of 0.5 cm. The pot was flooded with water to a depth of 4 cm or 2 cm on the next day of the application of the herbicide or 5 days after the application of the herbicide. And then, the plant was grown in the glasshouse.
Two (2) weeks after the application of the herbicide, the herbicidal effect on Leptochloa chinenisis was evaluated.

Echinochloa oryzicola [1] = assay: Pot test Example 3: herbicidal effect on Echinochloa oryzicola, spray on drained soil then flooding; settings: score 0-100, 25 g/ha, 4th leaf stage, evaluated 2 weeks after application
Experimental: as §1
A 1/10000-are pot was filled with a paddy field soil, and then water was added thereto followed by soil puddling. After draining, a pre-germinated Echinochloa oryzicola was sown, and then grown in a glasshouse. Sixteen (16) days after the sowing when Echinochloa oryzicola had the 4th leaves, each water-diluted solution containing 112 ppm of Compound 2 or Compound 3 was applied by spraying on the surface of the pot with a sprayer so that each amount of Compound 2 and Compound 3 as listed in Table 3 was applied. Each water-diluted solution of Compound 2 and Compound 3 was prepared by dissolving a given amount of Compound 2 or Compound 3 in acetone containing 2% (w/v) of Tween 20, followed by diluting the resulting solution with water so that the concentration of acetone was 10% by volume. When applying the water-diluted solution, the soil was well drained. The pot was flooded with water to a depth of 5 cm on the day of the application of the herbicide, the next day of the application of the herbicide, 3 days after the application of the herbicide, or 7 days after the application of the herbicide. And then, the plant was grown in the glasshouse.
Two (2) weeks after the application of the herbicide, the herbicidal effect on Echinochloa oryzicola was evaluated.

Echinochloa oryzicola [2] = assay: Pot test Example 2: herbicidal effect on Echinochloa oryzicola, spray on drained soil then flooding; settings: score 0-100, 25 g/ha, 4th leaf stage, evaluated 4 weeks after application
Experimental: as §1
(§2) A 1/10000-are pot was filled with a paddy field soil, and then water was added thereto followed by soil puddling. After draining, a pre-germinated Echinochloa oryzicola was sown, and then grown in a glasshouse. Sixteen (16) days after the sowing when Echinochloa oryzicola had the 4th leaves, a water-diluted solution (112 ppm of Compound 1) a flowable containing 10% Compound 1 was applied by spraying on the surface of the pot with a sprayer so that the amount of Compound 1 as listed in Table 2 was applied. When applying with the water-diluted solution, the soil was well drained. The pot was flooded with water to a depth of 5 cm on the day of the application of the herbicide, the next day of the application of the herbicide, or 3 days after the application of the herbicide. And then, the plant was grown in the glasshouse. Four (4) weeks after the application of the herbicide, the herbicidal effect on Echinochloa oryzicola was evaluated.

Echinochloa oryzicola [3] = assay: Pot test Example 1: herbicidal effect on Echinochloa oryzicola, spray on drained soil then flooding; settings: score 0-100, 30 g/ha, 4th leaf stage, evaluated 4 weeks after application
Experimental: as §1
as §2, with “1/5000-are Wagner” for “1/10000-are”, “Fourteen (14)” for “Sixteen (16)”, “(134” for “(112”, “1) of” for “1)”, “1” for “2”, “applying” for “applying with”

[4] = flooded 5 days after treatment, depth 4 cm
[5] = flooded next day of treatment, depth 2 cm
[6] = flooded next day of treatment, depth 4 cm
[7] = flooded to 5 cm 3 days after treatment
[8] = flooded to 5 cm 7 days after treatment
[9] = flooded to 5 cm on day of treatment
[10] = flooded to 5 cm on next day of treatment

Row | SMILES | Herbicidal effect on Leptochloa chinenisis (Leptochloa chinenisis; [4]) | Herbicidal effect on Leptochloa chinenisis (Leptochloa chinenisis; [5]) | Herbicidal effect on Leptochloa chinenisis (Leptochloa chinenisis; [6]) | Herbicidal effect on Echinochloa oryzicola (Echinochloa oryzicola [1]; [7]) | Herbicidal effect on Echinochloa oryzicola (Echinochloa oryzicola [1]; [8]) | Herbicidal effect on Echinochloa oryzicola (Echinochloa oryzicola [1]; [9]) | Herbicidal effect on Echinochloa oryzicola (Echinochloa oryzicola [1]; [10]) | Herbicidal effect on Echinochloa oryzicola (Echinochloa oryzicola [2]; [7]) | Herbicidal effect on Echinochloa oryzicola (Echinochloa oryzicola [2]; [9]) | Herbicidal effect on Echinochloa oryzicola (Echinochloa oryzicola [2]; [10]) | Herbicidal effect on Echinochloa oryzicola (Echinochloa oryzicola [3]; [7]) | Herbicidal effect on Echinochloa oryzicola (Echinochloa oryzicola [3]; [9]) | Herbicidal effect on Echinochloa oryzicola (Echinochloa oryzicola [3]; [10])
1 | COCc1cccc(C(O)c2nc(OC)cc(OC)n2)c1NS(=O)(=O)C(F)F (racemic) [Compound 2, (RS)-2′-[(4,6-Dimethoxypyrimidin-2-yl)(hydroxy)methyl]-1,1-difluoro-6′-(methoxymethyl)methanesulfonanilide] | 80 | 80 | 90 | 90 | 80 | 89 | 92 |  |  |  |  |  | 
2 | COc1cc(OC)nc(NC(=O)NS(=O)(=O)c2c(C3=NOCC(C)O3)c(Cl)nn2C)n1 (racemic) [Compound 3, 1-{3-Chloro-1-methyl-4-[(5RS)-5,6-dihydro-5-methyl-1,4,2-dioxazin-3-yl]pyrazol-5-ylsulfonyl}-3-(4,6-dimethoxypyrimidin-2-yl)urea] | 60 |  | 90 | 75 | 75 | 83 | 83 |  |  |  |  |  | 
3 | CCCc1ccc2nc(Cl)c(S(=O)(=O)NC(=O)Nc3nc(OC)cc(OC)n3)n2n1 [Compound 1, 1-(2-Chloro-6-propylimidazo[1,2-b]pyridazin-3-ylsulfonyl)-3-(4,6-dimethoxypyrimidin-2-yl)urea] | 75 | 75 | 90 |  |  |  |  | 85 | 88 | 93 | 90 | 96 | 97
